Reference: patent US5470833A, “Endothelin antagonistic peptide derivatives” (Banyu Pharmaceutical Co., Ltd., priority 1990, dated 1995)
Where two headings read alike, the source gives them in different places. Numbered stars: 1 amine (or outer) side, 2 acyl side, 3 side chain; on linkers, the order of the positions; unused ones are H or OH. Square brackets hold non-standard residues; d marks the D form. Peptide text beside a SMILES is read from it. * marks the point of attachment. d(β3hW) = N[C@@H](CC(=O)O)Cc1c[nH]c2ccccc12; dPhg = N[C@@H](C(=O)O)c1ccccc1; d(β3hA) = C[C@@H](N)CC(=O)O; dNle = CCCC[C@@H](N)C(=O)O; PhAc = O=C(Cc1ccccc1)*; Boc = CC(C)(C)OC(=O)*; CO = O=C([*:1])[*:2]; NHBn = c1ccc(CN*)cc1; NHPh = c1ccc(N*)cc1; Dha = C=C(N)C(=O)O; NHtBu = CC(C)(C)N*; Bn = c1ccc(C*)cc1; GABA = NCCCC(=O)O; βAla = NCCC(=O)O

Target: T1, endothelin receptor (membrane of smooth muscle tissue of porcine aorta) (Sus scrofa, UniProt Q29010)
T1 construct: from tissue; host or cells: porcine aorta smooth muscle, membrane fraction
T1 sequence (Q29010 21-427): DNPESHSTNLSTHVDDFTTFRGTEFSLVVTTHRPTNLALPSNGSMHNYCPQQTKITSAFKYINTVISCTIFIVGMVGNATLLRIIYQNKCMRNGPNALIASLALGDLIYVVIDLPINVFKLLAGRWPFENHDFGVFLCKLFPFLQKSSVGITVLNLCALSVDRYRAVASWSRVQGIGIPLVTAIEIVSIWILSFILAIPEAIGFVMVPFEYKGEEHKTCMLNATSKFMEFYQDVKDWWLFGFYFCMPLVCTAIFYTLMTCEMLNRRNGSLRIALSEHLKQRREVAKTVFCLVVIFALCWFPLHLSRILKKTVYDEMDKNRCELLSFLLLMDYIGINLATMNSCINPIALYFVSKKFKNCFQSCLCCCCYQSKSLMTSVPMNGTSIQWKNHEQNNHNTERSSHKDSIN
Assay: Endothelin binding inhibition test (125I-endothelin-1, porcine aorta smooth muscle membrane)
Settings: read-out: 125I-endothelin-1 binding inhibition
Method: The smooth muscle tissue of porcine aorta was homogenized in a buffer solution of 10 mM MOPS, pH 7.4, at 4° C. by a polytron. To the homogenate, sucrose was added to a concentration of 20%, and the mixture was centrifuged at 1,000×g for 15 minutes, and the supernatant was further centrifuged at 10,000×g for 15 minutes. The supernatant thereof was further centrifuged at 90,000×g for 40 minutes. The membrane precipitate thereby obtained was suspended in a buffer solution of 5 mM HEPES/Tris, pH 7.4, at a concentration of 25 mg/ml.
Then, 16 μl of this membrane suspension was added to 340 μl of 50 mM Tris/HCl buffer, pH 7.4, containing 10 μM calcium chloride, 10 μM magnesium chloride, 0.1 mM PMSF, 1 μM pepstatin A, 2 μM leupeptin, 1 mM 1,10-phenanthroline and 0.1% bovine serum albumin. To this suspension, 4 μl of (A) endothelin-1 (for nonspecific binding; 0.2 μM as the final concentration), (B) buffer solution A (for total control binding), or (C) a test compound (1.1 μM or 10 μM as the final concentration),was added. Further, to each suspension, 40 μl of ^125 I-endothelin-1 (12000-18000 cpm) was added. These mixtures were incubated at 25° C. for 4 hours, then subjected to filtration on a glass filter GF/C and then washed with 5 mM HEPES/Tris, pH 7.4, containing 0.3% bovine serum albumin. Then, the radioactivity trapped by the glass filter was measured, and the ^125 I-endothelin-1 binding inhibition D (%) at 1.1 μM or 10 μM of the test compound was determined by the following equation. [formula] Each test was performed in triplicate.
The test compounds are indicated by Compound Nos.

| inhibition at 1.1 µM (1.1 μM test compound (no mark)) [%] | SMILES | further results |
| --- | --- | --- |
| 32 | CC(C)C[C@H](NC(=O)N1CCCCCC1)C(=O)N[C@H](Cc1c[nH]c2ccccc12)C(=O)NCCC(=O)N(C)C [Compound 136] | – |
| 73 | CC(C)C[C@H](NC(=O)NC(C)(C)C)C(=O)N[C@H](Cc1c[nH]c2ccccc12)C(=O)N[C@H](C)CC(=O)O [Compound 80] ({NHtBu-CO}-Leu-[dW]-[d(β3hA)]-OH) | – |
| 31 | CC(C)C[C@H](NC(=O)OC(C)(C)C)C(=O)N[C@H](Cc1c[nH]c2ccccc12)C(=O)N[C@H](CC(C)C)C(=O)O [Compound 3] (Boc-Leu-[dW]-[dL]-OH) | – |
| 84 | CC(C)C[C@H](NC(=O)N1CCCCCC1)C(=O)N[C@H](Cc1cn(C=O)c2ccccc12)C(=O)NCCS(=O)(=O)O [Compound 161] | – |
| 74 | CC(C)C[C@H](NC(=O)OC(C)(C)C)C(=O)N[C@H](Cc1c[nH]c2ccccc12)C(=O)N[C@H](C)CC(=O)O [Compound 1] (Boc-Leu-[dW]-[d(β3hA)]-OH) | – |
| 41 | CCCC[C@@H](NC(=O)[C@@H](Cc1c[nH]c2ccccc12)NC(=O)[C@H](CC(C)C)NC(=O)OC(C)(C)C)C(=O)O [Compound 11] (Boc-Leu-[dW]-[dNle]-OH) | – |
| 75 | COC(=O)[C@@H](Cc1c[nH]cn1)NC(=O)[C@@H](Cc1c[nH]c2ccccc12)NC(=O)[C@H](CC(C)C)NC(=O)N1CCCCCC1 [Compound 47] | – |
| 85 | COC(=O)[C@@H](Cc1c[nH]c2ccccc12)NC(=O)[C@@H](Cc1c[nH]c2ccccc12)NC(=O)[C@H](CC(C)C)NC(=O)N1CCCCCC1 [Compound 49] | – |
| 86 | CC(C)C[C@H](NC(=O)N1CCCCCC1)C(=O)N[C@H](Cc1c[nH]c2ccccc12)C(=O)N[C@H](C)CS(=O)(=O)O [Compound 160] | – |
| 66 | CC(C)C[C@H](NC(=O)N1CCCCCC1)C(=O)N[C@H](CC1C(=O)Nc2ccccc21)C(=O)N[C@H](C)CC(=O)O (some centres unmarked) [Compound 139] | – |
| 45 | CC(C)C[C@H](NC(=O)OC(C)(C)C)C(=O)N[C@H](Cc1c[nH]c2ccccc12)C(=O)NCC(=O)O [Compound 31] (Boc-Leu-[dW]-Gly-OH) | – |
| 87 | CC(C)C[C@H](NC(=O)C1CCCCCC1)C(=O)N[C@H](Cc1c[nH]c2ccccc12)C(=O)N[C@H](Cc1c[nH]c2ccccc12)C(=O)O [Compound 200] | – |
| 71 | CC(C)C[C@H](NC(=O)N1CCCCCC1)C(=O)N[C@H](Cc1c[nH]c2ccccc12)C(=O)NN1CCC[C@H]1C(=O)O [Compound 164] | – |
| 22 | CC(C)C[C@H](NC(=O)OC(C)(C)C)C(=O)N[C@H](Cc1c[nH]c2ccccc12)C(=O)N[C@@H](CC(=O)O)C(N)=O [Compound 38] (Boc-Leu-[dW]-Asp-NH2) | – |
| 32 | CC(C)C[C@H](NC(=O)OC(C)(C)C)C(=O)N[C@H](Cc1c[nH]c2ccccc12)C(=O)N[C@H](CCC(N)=O)C(=O)O [Compound 10] (Boc-Leu-[dW]-[dQ]-OH) | – |
| 35 | CC(C)C[C@H](NC(=O)OC(C)(C)C)C(=O)N[C@H](Cc1c[nH]c2ccccc12)C(=O)N[C@H](CO)C(=O)O [Compound 7] (Boc-Leu-[dW]-[dS]-OH) | – |

The remaining lines, values behind:

| SMILES | inhibition at 1.1 µM (1.1 μM test compound (no mark)) [%] | further results |
| --- | --- | --- |
| CC(C)C[C@H](NC(=O)OC(C)(C)C)C(=O)N[C@H](Cc1c[nH]c2ccccc12)C(=O)NCCCC(=O)O [Compound 5] (Boc-Leu-[dW]-[GABA]-OH) | 33 | – |
| CC(C)C[C@H](NC(=O)N(C)c1ccccc1)C(=O)N[C@H](Cc1c[nH]c2ccccc12)C(=O)NCCC(=O)O [Compound 76] | 52 | – |
| CC(C)C[C@H](NC(=O)NCc1ccccc1)C(=O)N[C@H](Cc1c[nH]c2ccccc12)C(=O)NCCC(=O)O [Compound 115] ({NHBn-CO}-Leu-[dW]-[βAla]-OH) | 33 | – |
| CC(C)C[C@H](NC(=O)OC(C)(C)C)C(=O)N[C@H](Cc1c[nH]c2ccccc12)C(=O)NCC(=O)NCC(=O)O [Compound 23] (Boc-L[dW]GG-OH) | 33 | – |
| CC(C)C[C@H](NC(=O)N(C)C(C)(C)C)C(=O)N[C@H](Cc1cn(C=O)c2ccccc12)C(=O)N[C@H](Cc1c[nH]c2ccccc12)C(=O)O [Compound 174] | 81 | – |
| CC(C)C[C@H](NC(=O)OC(C)(C)C)C(=O)N[C@H](Cc1c[nH]c2ccccc12)C(=O)N[C@H](Cc1ccccc1)C(=O)O [Compound 39] (Boc-Leu-[dW]-[dF]-OH) | 75 | – |
| CC(C)C[C@H](NC(=O)OC(C)(C)C)C(=O)N[C@H](Cc1c[nH]c2ccccc12)C(=O)N[C@@H](C(=O)O)c1cccs1 [Compound 42] | 56 | – |
| CC(C)C[C@H](NC(=O)OC(C)(C)C)C(=O)N[C@H](Cc1c[nH]c2ccccc12)C(=O)N[C@H](CC(=O)O)C(=O)Nc1ccccc1 [Compound 44] (Boc-Leu-[dW]-[dD]-NHPh) | 30 | – |
| CC(C)C[C@H](NC(=O)NC(C)(C)C)C(=O)N[C@H](Cc1c[nH]c2ccccc12)C(=O)N[C@H](Cc1c[nH]cn1)C(=O)O [Compound 82] ({NHtBu-CO}-Leu-[dW]-[dH]-OH) | 76 | – |
| CC(C)C[C@H](NC(=O)OC(C)(C)C)C(=O)N[C@H](Cc1c[nH]c2ccccc12)C(=O)NC(CC(=O)O)c1ccccc1 (some centres unmarked) [Compound 14] | 64 | – |
| CC(C)C[C@H](NC(=O)OC(C)(C)C)C(=O)N[C@H](Cc1c[nH]c2ccccc12)C(=O)N[C@H](Cc1c[nH]cn1)C(=O)O [Compound 4] (Boc-Leu-[dW]-[dH]-OH) | 80 | – |
| CC(C)C[C@H](NC(=O)OC(C)(C)C)C(=O)N[C@H](Cc1c[nH]c2ccccc12)C(=O)N[C@H](Cc1ccc(O)cc1)C(=O)O [Compound 138] (Boc-Leu-[dW]-[dY]-OH) | 72 | – |
| Cc1nc[nH]c1CSC[C@@H](NC(=O)[C@@H](Cc1c[nH]c2ccccc12)NC(=O)[C@H](CC(C)C)NC(=O)OC(C)(C)C)C(=O)O [Compound 22] | – | inhibition at 10 µM (10 μM test compound (marked *)): 36% |
| C=C(NC(=O)[C@@H](Cc1c[nH]c2ccccc12)NC(=O)[C@H](CC(C)C)NC(=O)OC(C)(C)C)C(=O)O [Compound 133] (Boc-Leu-[dW]-[Dha]-OH) | 41 | – |
| CC(C)C[C@H](NC(=O)OC(C)(C)C)C(=O)N[C@H](Cc1c[nH]c2ccccc12)C(=O)NN(CC(=O)O)Cc1ccccc1 [Compound 149] | – | inhibition at 10 µM (10 μM test compound (marked *)): 58% |
| CC(C)C[C@H](NC(=O)Cc1ccccc1)C(=O)N[C@H](Cc1c[nH]c2ccccc12)C(=O)NCCC(=O)O [Compound 70] (PhAc-Leu-[dW]-[βAla]-OH) | 32 | – |
| CC(C)C[C@H](NC(=O)OC(C)(C)C)C(=O)N[C@H](Cc1c[nH]c2ccccc12)C(=O)N[C@@H](C(=O)O)c1ccccc1 [Compound 40] (Boc-Leu-[dW]-[dPhg]-OH) | 36 | – |
| CC(C)C[C@H](OC(=O)C1CCCCCC1)C(=O)N[C@H](Cc1c[nH]c2ccccc12)C(=O)N[C@H](Cc1c[nH]c2ccccc12)C(=O)O [Compound 201] | – | inhibition at 1.1 µM: 69% |
| CC[C@H](C)[C@H](NC(=O)OC(C)(C)C)C(=O)N[C@H](Cc1c[nH]c2ccccc12)C(=O)NCCC(=O)O [Compound 54] (Boc-Ile-[dW]-[βAla]-OH) | 39 | – |
| CC(C)C[C@H](NC(=O)OC(C)(C)C)C(=O)N[C@H](Cc1c[nH]c2ccccc12)C(=O)N[C@@H](CC(=O)O)Cc1c[nH]c2ccccc12 [Compound 19] (Boc-Leu-[dW]-[d(β3hW)]-OH) | – | inhibition at 10 µM: 53% |
| CC(C)C[C@H](NC(=O)NC(C)(C)C)C(=O)N[C@H](Cc1c[nH]c2ccccc12)C(=O)N[C@H](Cc1c[nH]c2ccccc12)C(=O)O [Compound 81] ({NHtBu-CO}-Leu-[dW]-[dW]-OH) | 84 | – |
| CC(C)C[C@H](NC(=S)Nc1ccccc1)C(=O)N[C@H](Cc1c[nH]c2ccccc12)C(=O)NCC(=O)O [Compound 91] | – | inhibition at 10 µM (10 μM test compound (marked *)): 51% |
| CC(C)C[C@H](NC(=O)OC(C)(C)C)C(=O)N[C@H](Cc1c[nH]c2ccccc12)C(=O)N[C@H](Cc1ccc(OCc2ccccc2)cc1)C(=O)O [Compound 137] (Boc-Leu-[dW]-[dY](Bn)-OH) | 46 | – |
| CC(C)C[C@H](NC(=O)CC(C)(C)C)C(=O)N[C@H](Cc1c[nH]c2ccccc12)C(=O)NCCC(=O)O [Compound 68] | – | inhibition at 10 µM (10 μM test compound (marked *)): 58% |
| CC(C)C[C@H](NC(=O)OC(C)(C)C)C(=O)N[C@H](Cc1c[nH]c2ccccc12)C(=O)N[C@H](CC(N)=O)C(=O)O [Compound 9] (Boc-Leu-[dW]-[dN]-OH) | – | inhibition at 10 µM (10 μM test compound (marked *)): 55% |
